Reference: paper PMC12677607, “Identification of a Pair of Linear or Cyclic Naturally Inspired Bifunctional Lipopeptide Antibiotics That Overcome Antimicrobial Resistance” (Advanced Science, 2025)
Square brackets hold non-standard residues; d marks the D form. Peptide text beside a SMILES is read from it. * marks the point of attachment. X2 = NC[C@H](Cc1ccc(O)cc1)N*; X1 = CC(C)[C@H](O)CC(=O)*; βAla = NCCC(=O)O

Assays:
[1] = design: method as in earlier work; conditions: Figure S20; cited from earlier work
[2] = system: Gram negative and positive bacteria; design: method as in 2 sources, one per row (each row's own in cited_ref): ref 49 (a number printed in a supplementary file, which may have a reference list of its own: not looked up in the article's list) ||| ref 50 (a number printed in a supplementary file, which may have a reference list of its own: not looked up in the article's list); conditions: Figure S20, known paired peptides; cited from earlier work
[3] = design: method as in earlier work; conditions: Figure S20; cited from earlier work; remark: listed apart in the source
Gram negative bacteria = system: Gram negative bacteria; design: method as in 2 sources, one per row (each row's own in cited_ref): ref 27 (a number printed in a supplementary file, which may have a reference list of its own: not looked up in the article's list) ||| ref 26 = [26]; PMID 24281661; doi:10.1038/ja.2013.121; 26 S. Kozuma , Y. Hirota‐Takahata , D. Fukuda , N. Kuraya , M. Nakajima , O , A , J. Antibiot. (Tokyo) 2014 , 67 , 237 . 24281661 10.1038/ja.2013.121; conditions: cited from earlier work
From the text: All 17 synAQUs were initially assayed for antimicrobial activity against four Gram‐negative bacteria, four Gram‐positive bacteria, and one fungal pathogen.

[4] = system: Candida albicans ATCC 64550; type: cell-based; conditions: ATCC 64550, 16 h
Method: (§1) All MIC assays were performed two independent times (n = 2) in 96‐well plates using a broth micro‐dilution method. The lowest concentration of that inhibited visible microbial growth was recorded as the MIC value.
(§2) For fungal strains, overnight cultures were diluted 2000‐fold in YPD broth. 100 µL of diluted cells was mixed with 100 µL of YPD broth containing each peptide ranging from […] 64 to 0.125 µg mL^−1 at 2‐fold serial dilutions.

Shigella Castellani LXX = assay: MIC assay (broth micro-dilution); type: cell-based; conditions: Table S11; LB broth, 37 °C, 16 h, n = 2
Method: as §1
(§3) For most of bacterial strains, overnight cultures were diluted 5000‐fold in LB broth. For E. faecium and S. aureus, overnight cultures were diluted 1000‐ and 10000‐fold in LB broth, respectively. 100 µL of diluted cells was mixed with 100 µL of LB broth containing each peptide ranging from 64 to 0.125 µg mL^−1 at 2‐fold serial dilutions.

B. subtilis ATCC 23857 = assay: MIC assay (broth micro-dilution); type: cell-based; conditions: Table S11; LB broth, 37 °C, 16 h, n = 2
Method: as §1, §3

Escherichia coli DH5α = assay: MIC assay (broth micro-dilution); type: cell-based; conditions: Table S11; LB broth, 37 °C, 16 h, n = 2
Method: as §1, §3

[5] = system: Candida albicans ATCC 10231; assay: MIC assay (YPD broth); type: cell-based; conditions: Table S11; YPD broth, 30 °C, 16 h, n = 2
Method: as §1, §2

[6] = system: Klebsiella pneumoniae NCTC 5056; assay: microbe, parasite or virus in culture; type: cell-based; conditions: NCTC 5056, 16 h
Method: as §1, §3

[7] = system: Vibrio alginolyticus XSBZ14; assay: microbe, parasite or virus in culture; type: cell-based; conditions: 16 h
Method: as §1, §3

[8] = system: Enterococcus faecium 35682; assay: microbe, parasite or virus in culture; type: cell-based; conditions: 35682, 16 h
Method: as §1, §3

[9] = system: Klebsiella pneumoniae ATCC 13883; assay: microbe, parasite or virus in culture; type: cell-based; conditions: ATCC 13883, 16 h
Method: as §1, §3

[10] = system: Staphylococcus aureus Newman; assay: microbe, parasite or virus in culture; type: cell-based; conditions: Newman, 16 h
Method: as §1, §3

Enterococcus faecalis 28 = assay: microbe, parasite or virus in culture; type: cell-based; conditions: 28, 16 h
Method: as §1, §3

[11] = system: Pseudomonas aeruginosa ATCC 9027; assay: microbe, parasite or virus in culture; type: cell-based; conditions: ATCC 9027, 16 h
Method: as §1, §3

[12] = system: Salmonella enterica ATCC 14028; assay: microbe, parasite or virus in culture; type: cell-based; conditions: ATCC 14028, 16 h
Method: as §1, §3

[13] = system: Staphylococcus aureus USA300; assay: microbe, parasite or virus in culture; type: cell-based; conditions: Table S11; LB broth, 37 °C, 16 h, n = 2
Method: as §1, §3

[14] = system: Salmonella typhimurium LXX; assay: microbe, parasite or virus in culture; type: cell-based; conditions: murium LXX, 16 h
Method: as §1, §3

[15] = system: Staphylococcus aureus ATCC 25923; assay: microbe, parasite or virus in culture; type: cell-based; conditions: ATCC 25923, 16 h
Method: as §1, §3

[16] = system: Streptococcus pyogenes ATCC 19615; assay: microbe, parasite or virus in culture; type: cell-based; conditions: Table S11; LB broth, 37 °C, 16 h, n = 2
Method: as §1, §3

[17] = system: Klebsiella pneumoniae CRKP 5452; assay: microbe, parasite or virus in culture; type: cell-based; conditions: Table S11; LB broth, 37 °C, 16 h, n = 2
Method: as §1, §3

[18] = system: Acinetobacter baumannii ATCC 19606; assay: microbe, parasite or virus in culture; type: cell-based; conditions: ATCC 19606, 16 h
Method: as §1, §3

[19] = system: Acinetobacter baumannii ATCC 17978; assay: microbe, parasite or virus in culture; type: cell-based; conditions: ATCC 17978, 16 h
Method: as §1, §3

[20] = system: Enterococcus faecalis ATCC 29212; assay: microbe, parasite or virus in culture; type: cell-based; conditions: ATCC 29212, 16 h
Method: as §1, §3

[21] = system: Klebsiella pneumoniae CRKP HS11286; assay: microbe, parasite or virus in culture; type: cell-based; conditions: CRKP HS11286, 16 h
Method: as §1, §3

[22] = system: Acinetobacter baumannii 1104008; assay: microbe, parasite or virus in culture; type: cell-based; conditions: Table S11; LB broth, 37 °C, 16 h, n = 2
Method: as §1, §3

[23] = system: Acinetobacter baumannii P53; assay: microbe, parasite or virus in culture; type: cell-based; conditions: Table S11; LB broth, 37 °C, 16 h, n = 2
Method: as §1, §3

[24] = system: Staphylococcus aureus ATCC 6538; assay: microbe, parasite or virus in culture; type: cell-based; conditions: ATCC 6538, 16 h
Method: as §1, §3

Enterococcus faecalis 26 = assay: microbe, parasite or virus in culture; type: cell-based; conditions: 26, 16 h
Method: as §1, §3

[25] = system: Streptococcus mutans ATCC 25175; assay: microbe, parasite or virus in culture; type: cell-based; conditions: ATCC 25175, 16 h
Method: as §1, §3

[26] = system: Pseudomonas aeruginosa PAO1; assay: microbe, parasite or virus in culture; type: cell-based; conditions: PAO1, 16 h
Method: as §1, §3

Bacaucin
He mo l y t i c: hemolytic activity [1]
Cyt ot oxic: cytotoxic activity [3]
Broad antibacterial activity: antibacterial activity [2]

Brevicidine
2 to 4 µg/mL: MIC, anti-Gram negative activity (Gram negative bacteria; Figure S20, known paired peptides)

CC[C@H](C)[C@H](NC(=O)[C@@H](NC(=O)[C@@H](C)NC(=O)[C@H](C)NC(=O)[C@@H](NC(=O)C[C@@H](O)C(C)C)C(C)C)[C@@H](C)CC)C(=O)NCCC(=O)N[C@@H](CC(C)C)C(=O)N[C@H](C)C(=O)N[C@H](C(=O)N[C@H](CN)Cc1ccc(O)cc1)[C@@H](C)CC [synAQU4-L] (X1-VA[dA]II[βAla]L[dA]I-X2)
4 µg/mL: MIC Streptococcus pyogenes ATCC 19615 [16]
> 64 µg/mL: MIC Candida albicans ATCC 64550 [4] | MIC Shigella Castellani LXX (Shigella Castellani LXX) | MIC Bacllussubtilis ATCC 23857 (B. subtilis ATCC 23857) | MIC Escherichia coli DH5α (Escherichia coli DH5α) | MIC Candida albicans ATCC 10231 [5] | MIC Klebsiella pneumoniae NCTC 5056 [6] | MIC Vibrio alginolyticus XSBZ14 [7] | MIC Enterococcus faecium 35682 [8] | MIC Klebsiella pneumoniae ATCC 13883 [9] | MIC Staphylococcus aureus Newman [10] | MIC Enterococcus faecalis 28 (Enterococcus faecalis 28) | MIC Pseudomonas aeruginosa ATCC 9027 [11] | MIC Salmonella enterica ATCC 14028 [12] | MIC Staphylococcus aureus USA300 [13] | MIC Salmonella typhimurium LXX [14] | MIC Staphylococcus aureus ATCC 25923 [15] | MIC Klebsiella pneumoniae CRKP 5452 [17] | MIC Acinetobacter baumannii ATCC 19606 [18] | MIC Acinetobacter baumannii ATCC 17978 [19] | MIC Enterococcus faecalis ATCC 29212 [20] | MIC Klebsiella pneumoniae CRKP HS11286 [21] | MIC Acinetobacter baumannii 1104008 [22] | MIC Acinetobacter baumannii P53 [23] | MIC Staphylococcus aureus ATCC 6538 [24] | MIC Enterococcus faecalis 26 (Enterococcus faecalis 26) | MIC Pseudomonas aeruginosa PAO1 [26]
16 µg/mL: MIC Streptococcus mutans ATCC 25175 [25]

pedopeptin B
potent anti‐Gram‐negative activity: anti-Gram-negative activity (Gram negative bacteria; in words)
